Tests used:
neurons = conditions: 24 hours; cited from earlier work
[1] = system: caspase-3 activation in neurons; conditions: cited from earlier work
[2] = system: caspase-3 activation in tumor cells; conditions: cited from earlier work
[3] = system: MDA-MB-435 or MDA-MB231 or SKOV-3 cells; experiment: Tumor cell viability (MTS) assay; type: cell-based
Protocol: The cytotoxicity of test compounds is determined using the CellTiter96 Aqueous One Solution Assay (Promega, Madison, Wis.). Briefly, MDA-MB-435 or MDA-MB231 or SKOV-3 cells were seeded in a 96-well plate at a density of 2000 cells/well on the day prior to treatment with sigma-2 receptor selective ligands. […] The plate is read at 490 nm in a Victor3 plate reader (PerkinElmer Life and Analytical Sciences, Shelton, Conn.). The EC^50 value, defined as the concentration of the sigma ligand required to inhibit cell viability by 50% relative to untreated cells, is determined from the dose response curve for each cell line. Siramesine is accepted as an agonist.

Sigma-2 receptor = Sigma-2 receptor (Rattus norvegicus (Rat), UniProt Q5U3Y7); experiment: Sigma-2 receptor competitive radioligand binding assay; conditions: read-out: Sigma-2 Receptor Affinity, Ki
Sigma-2 receptor, sequence (Q5U3Y7 whole entry): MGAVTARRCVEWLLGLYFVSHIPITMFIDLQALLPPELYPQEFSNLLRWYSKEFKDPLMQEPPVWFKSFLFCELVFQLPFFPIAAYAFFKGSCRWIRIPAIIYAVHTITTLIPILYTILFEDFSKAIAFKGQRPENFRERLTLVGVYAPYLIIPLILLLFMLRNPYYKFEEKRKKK
Protocol: Radioligand binding assays for Sigma-1 receptors and Sigma-2 receptors were carried out by a commercial contract research organization. For Sigma-1 binding, various concentrations of test compounds from 100 μM to 1 nM were used to displace 8 nM [^3H](+)pentazocine from endogenous receptors on Jurkat cell membranes (Ganapathy M E et al. 1991, J Pharmacol. Exp. Ther. 289:251-260). 10 μM Haloperidol was used to define non-specific binding. For Sigma-2 receptors various concentrations of test compounds from 100 μM to 1 nM were used to displace 5 nM [^3H] […] (Bowen W D, et al. 1993, Mol. Neuropharmcol 3:117-126). 10 μM Haloperidol was used to define non-specific binding. […] Radioactivity on the dried filter discs was measured using a liquid scintillation analyzer (Tri-Carb 2900TR; PerkinElmer Life and Analytical Sciences). The displacement curves were plotted and the Ki values of the test ligands for the receptor subtypes were determined using GraphPad Prism (GraphPad Software Inc., San Diego, Calif.). The percentage specific binding was determined by dividing the difference between total bound (disintegrations per minute) and nonspecific bound (disintegrations per minute) by the total bound (disintegrations per minute).
The affinity of candidate sigma-2 ligand compounds at sigma-1 and sigma-2 receptors was also determined by displacement of different known labeled sigma-2 or sigma-1 ligands. […]

Structure (SMILES)	nuclear morphology / nuclear intensity compared to vehicle (neurons)	block of caspase-3 activation by agonist SV-119 [1]	caspase-3 activation [1]	caspase-3 activation [2]	inhibition of caspase-3 activation [2]	Action [3]	Ki (Sigma-2 receptor) [µM]
COc1cc2c(cc1OC)CN(CCCCNC(=O)c1cc(C)ccc1OC)CC2 [RHM-1, N-[4-(3,4-dihydro-6,7-dimethoxyisoquinolin-2(1H)-yl)butyl]-2-methoxy-5-methylbenzamide]	do not decrease nuclear intensity	not able to block activation	do not induce caspase-3 activity	do not induce caspase-3 activity	inhibits the activation	–	–
COc1ccc(C)cc1NC(=O)OC1C[C@H]2CCC[C@@H](C1)N2CCCCCCN (stereo partly shown) [SV-119]	cause significant abnormal nuclear morphology	–	activate caspase-3	activate caspase-3	–	Full agonist (If the EC50s of a sigma-2 ligand test compound is less than 2 fold of EC50 of siramesine, this sigma-2 ligand test compound is considered as an agonist)	–
CC(C)(C)Oc1cc(CCC(C)(C)N2Cc3cccc(C(=O)O)c3C2)ccc1O [compound 75]	–	–	–	–	–	–	> 10
